Reference: patent US20160169918A1, “Methods of Diagnosis and Treatment for Pulmonary Arterial Hypertension” (THE REGENTS OF THE UNIVERSITY OF CALIFORNIA, priority 2013, published 2016)

Experiments:
smooth muscle cell = conditions: after serum stimulation; cited from earlier work
[1] = target: T1, adenosine 2B receptor (A2BR) (Homo sapiens, UniProt P29275); assay: cAMP accumulation in response to receptor agonist (cAMP radioimmunoassay) in Ctrl-PASMCs; format: cell-based; conditions: agonist 1 μM, 10 min treatment
T1 sequence (P29275 1-332): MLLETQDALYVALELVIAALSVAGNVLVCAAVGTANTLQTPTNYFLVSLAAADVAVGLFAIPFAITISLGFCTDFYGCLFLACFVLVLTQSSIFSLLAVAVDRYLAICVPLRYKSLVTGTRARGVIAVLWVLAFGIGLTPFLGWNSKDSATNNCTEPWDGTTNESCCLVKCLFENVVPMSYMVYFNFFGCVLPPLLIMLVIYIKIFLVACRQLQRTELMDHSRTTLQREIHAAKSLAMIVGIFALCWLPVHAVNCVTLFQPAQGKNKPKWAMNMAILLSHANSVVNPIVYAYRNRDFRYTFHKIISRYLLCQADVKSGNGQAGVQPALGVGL
Method: (§1) Control-PASMCs, PAH-PASMCs or HEK 293 cells were seeded at 30,000 cells/well in a 24-well plate. […] 10 uM FSK (alone) was used as a positive control. After the incubations, the media was aspirated and 150 μL of 7.5% trichloroacetic acid (TCA) was added to each well.
(§2) Assay tubes were filled with 1 mL of 10 mM sodium acetate buffer (pH 4.75) and a standard curve was constructed by serial dilution of stock 5 μM cAMP (Millipore, Billerica, Mass.). An appropriate amount of sample was added to the assay tubes and the samples were acetylated by addition of 20 μL triethylamine (Sigma) and 10 μl acetic anhydride (Sigma). 100 μL of the sodium acetate buffer was added to each well of a 96-well filter plate to prepare the plate and then was removed by vacuum. 50 μL of diluted, acetylated sample was added to each well along with 25 μL diluted antibody [1:1000, 6 μL primary cAMP antibody (Millipore) in 6 mL γ-globulin buffer (100 mg human γ-globulin/100 mL 50 mM NaAc pH 4.75)] and 25 μL diluted ^125I radioactivity [16 acetylated adenosine 3′,5′-cyclic phosphoric acid, 2′-O-succinyl [^125I]-iodotyrosine methyl ester (PerkinElmer) in 3 mL γ-globulin buffer so that 0.001 mCi of ^125I could be added to each sample. The 96-well filter plate containing the sample was incubated overnight at 4° C. […]

[2] = test system: Adult Sprague-Dawley rats; assay: monocrotaline-treated rat model, right ventricular hypertrophy (Fulton Index); conditions: MCT 60 mg/kg once intraperitoneally, 2 weeks, control rats 0.20
Method: Adult Sprague-Dawley rats (250-300 g, male) were injected once intraperitoneally with MCT (60 mg/kg) and sacrificed 2 weeks later. Right ventricular hypertrophy was assessed to determine the development of PAH. It was evaluated as the ratio of the weight of the right ventricle to that of the left ventricle plus the septum (Fulton Index). […] This model is commonly used and approved as a valid model of PAH.^42,43 All animals were cared for in compliance with the guiding principles and approved by the UCSD Institutional Animal Care and Use Committee.

GPR75 = conditions: cited from earlier work
[3] = target: prostaglandin E2 receptor (EP2R) (Homo sapiens, UniProt P43116); assay: cAMP accumulation in response to receptor agonist (cAMP radioimmunoassay) in Ctrl-PASMCs; conditions: agonist 1 μM, 10 min treatment
Method: as §1, §2

[4] = target: prostacyclin receptor (IPR) (Homo sapiens, UniProt P43119); assay: as above; format: cell-based; conditions: agonist 10 μM, 10 min treatment
Method: as §1, §2

oxytocin receptor = target: T2, oxytocin receptor (Homo sapiens, UniProt P30559); assay: forskolin-stimulated cAMP levels in Ctrl-PASMCs with oxytocin; format: cell-based; conditions: 0.1 nM-10 μM, 10 min, FIG. 4D
T2 construct: the oxytocin receptor is expressed on the membrane of Ctrl-PASMCs; endogenous in cells; host or cells: Ctrl-PASMCs (primary human pulmonary artery smooth muscle cells)
T2 sequence (P30559 1-389): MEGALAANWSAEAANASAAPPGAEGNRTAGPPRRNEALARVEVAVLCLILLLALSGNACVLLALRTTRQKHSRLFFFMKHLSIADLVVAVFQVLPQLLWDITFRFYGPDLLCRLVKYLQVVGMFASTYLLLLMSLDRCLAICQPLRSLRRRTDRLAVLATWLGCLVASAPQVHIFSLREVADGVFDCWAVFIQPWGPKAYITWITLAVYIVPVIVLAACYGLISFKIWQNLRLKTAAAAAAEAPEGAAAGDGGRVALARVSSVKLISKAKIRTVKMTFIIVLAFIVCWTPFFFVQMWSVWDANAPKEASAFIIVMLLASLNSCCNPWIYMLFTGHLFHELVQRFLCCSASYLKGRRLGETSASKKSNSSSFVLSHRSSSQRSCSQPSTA
Method: as §1, §2

[5] = oxytocin 0.2 units/kg; cited from earlier work
Ctrl-PASMCs = assay: [3H]thymidine incorporation (DNA synthesis, proliferation) of PASMCs with GPCR agonists; format: cell-based, human
Method: GPCR agonists/antagonists/GPR75 antibody in the absence or presence of 200 μM IBMX and [^3H] thymidine (1 μCi/ml) were added to the cells for 24-48 hr. Following incubation, cells were washed with a large volume of cold phosphate buffer saline (PBS) and then twice with a large volume of cold 7.5% TCA. The precipitated material was dissolved with 0.5 M NaOH and combined with 3 mL of scintillation fluid (Ecoscint O, National Diagnostics) and radioactivity was determined using a liquid scintillation counter (Beckman Coulter LS 1801).

[6] = target: gastric inhibitory polypeptide receptor (human) (UniProt P48546); assay: cell-based or functional assay
[7] = target: T3, gastric inhibitory polypeptide receptor (GIPR) (Homo sapiens, UniProt P48546); assay: cAMP accumulation in response to receptor agonist (cAMP radioimmunoassay) in Ctrl-PASMCs; conditions: agonist 1 μM, 10 min treatment
T3 sequence (P48546 22-466): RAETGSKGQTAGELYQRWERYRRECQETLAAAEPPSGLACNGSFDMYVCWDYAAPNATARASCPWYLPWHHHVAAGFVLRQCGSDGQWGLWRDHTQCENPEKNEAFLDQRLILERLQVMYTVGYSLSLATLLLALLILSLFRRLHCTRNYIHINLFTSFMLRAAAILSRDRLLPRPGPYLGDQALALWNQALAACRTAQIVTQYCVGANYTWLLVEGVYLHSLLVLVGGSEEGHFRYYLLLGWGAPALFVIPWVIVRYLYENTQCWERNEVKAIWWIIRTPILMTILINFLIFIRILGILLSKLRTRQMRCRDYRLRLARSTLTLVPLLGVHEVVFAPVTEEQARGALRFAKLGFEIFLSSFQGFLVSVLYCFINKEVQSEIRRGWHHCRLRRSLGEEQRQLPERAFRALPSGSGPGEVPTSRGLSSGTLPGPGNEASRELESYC
Method: as §1, §2

human PASMCs = conditions: cited from earlier work
PAH-patients = conditions: chronic inhalation; n=8 PAH-patients; cited from earlier work
[8] = target: vasoactive intestinal peptide receptor 1 (human) (UniProt P32241); assay: cell-based or functional assay
[9] = HEK293 cells overexpressing GPR75

vasoactive intestinal peptide receptor 1 (human), sequence (P32241 31-457): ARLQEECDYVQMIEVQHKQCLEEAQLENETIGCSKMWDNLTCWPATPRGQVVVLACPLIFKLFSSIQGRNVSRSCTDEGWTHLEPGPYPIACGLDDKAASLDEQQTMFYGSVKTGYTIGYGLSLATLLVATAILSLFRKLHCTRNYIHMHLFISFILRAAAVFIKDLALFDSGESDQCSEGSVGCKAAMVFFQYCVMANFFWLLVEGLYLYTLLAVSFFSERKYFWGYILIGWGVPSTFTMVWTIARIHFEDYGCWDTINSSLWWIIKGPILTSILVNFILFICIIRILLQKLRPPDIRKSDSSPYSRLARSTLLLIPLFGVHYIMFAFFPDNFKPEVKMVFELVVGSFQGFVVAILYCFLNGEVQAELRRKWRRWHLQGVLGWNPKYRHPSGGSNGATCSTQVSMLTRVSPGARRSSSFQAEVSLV
prostacyclin receptor (IPR), sequence (P43119 whole entry): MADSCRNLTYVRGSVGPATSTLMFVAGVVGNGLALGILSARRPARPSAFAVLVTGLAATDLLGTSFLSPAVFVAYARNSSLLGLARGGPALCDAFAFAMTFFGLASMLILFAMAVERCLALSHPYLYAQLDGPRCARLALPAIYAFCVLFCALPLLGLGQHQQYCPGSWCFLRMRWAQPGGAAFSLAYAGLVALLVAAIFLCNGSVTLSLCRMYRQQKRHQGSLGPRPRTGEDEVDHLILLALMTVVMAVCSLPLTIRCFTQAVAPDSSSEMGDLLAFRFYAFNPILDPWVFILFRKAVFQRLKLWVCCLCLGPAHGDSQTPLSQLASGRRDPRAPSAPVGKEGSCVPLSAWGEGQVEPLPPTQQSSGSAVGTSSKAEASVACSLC
prostaglandin E2 receptor (EP2R), sequence (P43116 whole entry): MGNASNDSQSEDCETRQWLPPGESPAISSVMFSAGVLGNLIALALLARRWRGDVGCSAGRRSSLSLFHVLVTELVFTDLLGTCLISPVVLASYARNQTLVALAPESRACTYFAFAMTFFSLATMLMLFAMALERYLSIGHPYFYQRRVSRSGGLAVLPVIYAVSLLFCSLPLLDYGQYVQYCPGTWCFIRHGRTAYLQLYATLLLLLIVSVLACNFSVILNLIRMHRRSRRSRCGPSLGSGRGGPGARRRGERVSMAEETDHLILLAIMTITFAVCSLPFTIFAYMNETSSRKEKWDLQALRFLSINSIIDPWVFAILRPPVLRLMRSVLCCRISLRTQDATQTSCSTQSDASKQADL

Nc1ncnc2c1nc(Br)n2[C@@H]1O[C@@H]2COP(=O)(O)O[C@H]2[C@H]1O [8Br-cAMP]
percentage of cells in the S phase of the cell cycle (smooth muscle cell): reduced

Nc1nc(Nc2ccccc2)nc2c1ncn2[C@@H]1O[C@H](CO)[C@@H](O)[C@H]1O [CV1808]
cAMP accumulation [1]: 0.6 fmol cAMP/cell/10 min

C[C@H]1C(=O)O[C@@H]2CCN3CC=C(COC(=O)[C@](C)(O)[C@]1(C)O)[C@H]23 [MCT, Monocrotaline]
Fulton Index (weight of right ventricle / left ventricle plus septum) [2]: 0.34

COc1ccc2c(c1)CC[C@@H]1[C@@H]2CC[C@]2(C)[C@@H](NCCCCCCN3C(=O)C=CC3=O)CC[C@@H]12 [U73122]
RANTES-mediated increase in Ca2+ mobilization (GPR75; GPR75-HEK293 cells, PLC inhibitor): block

CCCC1([C@H](O)C/C=C/[C@H]2[C@H](O)CC(=O)[C@@H]2CCCCCCC(=O)OC)CCC1 [butaprost]
cAMP accumulation [3]: 0.4 fmol cAMP/cell/10 min

CCCCC[C@H](O)/C=C/[C@@H]1[C@H]2C/C(=C/CCCC(=O)O)O[C@H]2C[C@H]1O [epoprostenol]
cAMP accumulation [4]: 0.4 fmol cAMP/cell/10 min

CC[C@H](C)[C@@H]1NC(=O)[C@H](Cc2ccc(O)cc2)NC(=O)[C@@H](N)CSSC[C@@H](C(=O)N2CCC[C@H]2C(=O)N[C@@H](CC(C)C)C(=O)NCC(N)=O)NC(=O)[C@H](CC(N)=O)NC(=O)[C@H](CCC(N)=O)NC1=O [oxytocin]
cAMP accumulation (forskolin-stimulated) (oxytocin receptor): decreased cAMP accumulation
mean PAP [5]: increases
pulmonary vascular resistance (PVR) [5]: increases
PASMC proliferation (Ctrl-PASMCs; 0.1 nM-10 μM, cells in serum free media over 24 hr, FIG. 4D): promoted PASMC proliferation

GIP (from UniProt P09681 52-93) (peptide)
cAMP accumulation (fmol cAMP/cell/10 min treatment with agonist) in Ctrl-PASMCs at 1 µM GIP (fmol cAMP/cell/10 min) [6]: 0.2

GIP: receptor agonist used for the gastric inhibitory polypeptide receptor (GIPR)
cAMP accumulation [7]: 0.2 fmol cAMP/cell/10 min

Neuropeptide Y
proliferation of human PASMCs (human PASMCs): stimulates proliferation

Vasoactive Intestinal Peptide [VIP]
exercise capacity (PAH-patients): improve
hemodynamics (PAH-patients): improve
decrease of PASMC proliferation (Ctrl-PASMCs; 0.1 nM-10 μM VIP, FIG. 4C): roughly 50%

vasoactive intestinal peptide (from UniProt P01282 125-152)
cAMP accumulation (fmol cAMP/cell/10 min treatment with agonist) in Ctrl-PASMCs at 1 µM VIP (fmol cAMP/cell/10 min) [8]: 0.2
decrease in proliferation of PASMCs (0.1 nM-10 µM VIP) [8]: 50%

B1: RANTES: Regulated upon Activation, Normal T-cell Expressed, and Secreted chemokine; proposed ligand for GPR75 (protein, UniProt P13501 24-91, looked up)
C-C motif chemokine 5: SPYSSDTTPCCFAYIARPLPRAHIKEYFYTSGKCSNPAVVFVTRKNRQVCANPEKKWVREYINSLEMS
Ca2+ mobilization (GPR75; [9]): stimulation
inositol triphosphate (IP3) (GPR75; [9]): increase
